Data set [1] relates to SKBR-3 (breast cancer) human tumor cell line. Kind of data set: MTS growth inhibition assay, SKBR-3. The class given is cell-based. As to conditions: SK-BR-3, SK-BR3 (breast), 3 h treatment, 72 h recovery. The protocol:
(§1) The agents PDX, PDX-10a, PDX-10b, were evaluated for growth inhibitory activity against, MDA-MB-435, SKBR-3 and NCI-H460 human tumor cell lines. Growth inhibition was measured by MTS assay following three hours of continuous treatment and a seventy-two hour recovery incubation. The purpose of these studies was to determine the cytotoxic activity of the compounds in the tumor cell lines studies studied.
Materials and Methods. Preparation of PDX-10a and PDX-10b was performed as discussed in Examples 1-2. The PDX compounds were diluted in dimethylsulfoxide (DMSO) at a concentration of 20 mM. From this solution a stock solution of 2 mM was made by dilution with phosphate-buffered saline (PBS). This 2 mM stock solution in 10% DMSO/90% PBS was used to make 2× concentrations of the titration series in cell growth medium which was added to the cell cultures in a 1:1 ratio to make 1× concentrations. Cell lines—The human tumor cell lines: MDA-MB-435 (melanoma), SKBR-3 (breast cancer) and NCI-H460 (lung cancer) were cultured in RPMI medium (RPMI; Nova Tech, Grand Island, N.Y.) containing ten percent dialyzed fetal bovine serum (FBS; Nova Tech). […]
Single Agent Pulse Studies—Treatment with test agents or standard agents (controls) was initiated 24 hours after plating cells (Day 1). […] Following incubation, the viable cell number was quantified by the MTS assay described below. […]
MTS Assay—Cell viability was determined using the MTS assay. […] Formazan production was quantified by spectrophotometric measurement at 490 nm and is proportional to viable cell number. […] Absorbance (OD) values were measured using a Dynex HD microplate reader at a single wavelength of 490 nm.
(§2) Data Analysis—Data from each experiment was collected and expressed as OD490 versus the log10 of the test agent concentration. […]
In general terms: Tetrazolium dyes change colour on reduction, which living cells bring about.

Data set [2] has as its system CWR22-RV1 (prostate) cell lines. The data set is described as follows: MTS growth inhibition assay, CWR22-RV1. The class given is cell-based. As to conditions: Homo sapiens, CWR22Rv1, separate experiments.
Data set [3] is described as follows: Pharmacokinetics in dog (PDX-T-07054-D). Type of data set: in vivo. To be noted: both sexes, dog, plasma, 0.7 mg/kg, dog, racemic mixture, males and females (mean). As to the method:
(§3) Bioanalytical methods were developed and validated for quantitation of the 2 pralatrexate C10 diastereomers (PDX-10a and PDX-10b) in human, rat and dog plasma and urine. The basic bioanalytical method involves extraction of PDX-10a and PDX-10b from the matrix utilizing C18 solid-phase extraction (SPE) cartridges followed by derivatization (methylation with acetyl chloride) of the diastereomers for separation detection. The derivatized extracts are injected on a chiral high-performance liquid chromatography (HPLC) column for quantitation of each diastereomer by liquid chromatography-tandem mass spectrometry (LC/MS/MS). The lower limit of quantitation (LLOQ) for both diastereomers in plasma and urine matrices was 0.5 ng/mL. […]

Data set [4] has as its system NCI-H460 (lung cancer) human tumor cell line. The data set is described as follows: MTS growth inhibition assay, NCI-H460. Type of data set: cell-based. The protocol: as §1
(§4) Materials and Methods. Preparation of PDX-10a and PDX-10b was performed as discussed in Examples 1-2. The PDX compounds were diluted in dimethylsulfoxide (DMSO) at a concentration of 20 mM. From this solution a stock solution of 2 mM was made by dilution with phosphate-buffered saline (PBS). This 2 mM stock solution in 10% DMSO/90% PBS was used to make 2× concentrations of the titration series in cell growth medium which was added to the cell cultures in a 1:1 ratio to make 1× concentrations. Cell lines—The human tumor cell lines: MDA-MB-435 (melanoma), SKBR-3 (breast cancer) and NCI-H460 (lung cancer) were cultured in RPMI medium (RPMI; Nova Tech, Grand Island, N.Y.) containing ten percent dialyzed fetal bovine serum (FBS; Nova Tech). Once cells reached seventy percent confluency, they were trypsinized and resuspended in an alternate media (RPMI containing five percent dialyzed FBS (Hyclone, Logan, Utah). One day prior to treatment (Day 0), cultures were suspended at a concentration of 1−7.5×10^4 cell/ml and 100 μl aliquots were plated into each well of a 96-well microtiter plate at a final concentration of 1×10^3-7.5×10^3 cells/well. Cells were incubated for 24 hours at 37° C. prior to exposure with agents.
(§5) Test Agents—racemic PDX, and individual diastereomers PDX-10a and PDX-10b were prepared as described above. Cells were treated 24 hours after plating (Day 1) with vehicle (media) alone or the above test agents for three hours at concentrations between 3 μM and 10 μM.
(§6) Single Agent Pulse Studies—Treatment with test agents or standard agents (controls) was initiated 24 hours after plating cells (Day 1). Cells were incubated at 37° C. with each of the test agents or a “chemococktail” (positive control) consisting of 215 μM Etoposide, 20 μM Taxol, 38.5 nM Velcade at final concentration for three hours. Following treatment, drug was removed, growth media added, and cells incubated at 37° C. for 72 hours. Following incubation, the viable cell number was quantified by the MTS assay described below. Experiments were repeated twice at the same concentrations. Results from these studies were used to calculate an IC50 value (concentration of drug that inhibits cell growth by 50% of the vehicle) for each compound. IC50 values were generated with Prizm software.
(§7) MTS Assay—Cell viability was determined using the MTS assay. This colorimetric procedure measures conversion of the MTS reagent (a tetrazolium salt) to formazan by living cells. Formazan production was quantified by spectrophotometric measurement at 490 nm and is proportional to viable cell number. For these studies, cells were cultured and treated as listed above. At the end of the treatment, 20 μl MTS tetrazolium (1.9 mg/ml in PBS, pH 6.0) was added to the cells for 1 hour at 37° C. Absorbance (OD) values were measured using a Dynex HD microplate reader at a single wavelength of 490 nm.
Data Analysis—Data from each experiment was collected and expressed as OD490 versus the log10 of the test agent concentration. Using the statistical analysis package of the Prizm analytical software (GraphPad, San Diego, Calif.), a non-linear curve fit was performed which yielded the 50% inhibition concentration of the test article (IC50).

The nature of data set [5]: Pharmacokinetics in rat (PDX-T-07034-R). The class given is in vivo. As to conditions: both sexes, plasma, 5 mg/kg, racemic mixture, males and females (mean). The protocol:
as §3

A short description of data set [6]: Pharmacokinetics in human (PDX-008, noncompartmental). The class given is in vivo. As to conditions: both sexes, human, plasma, intravenous, 30 mg/m^2, human, racemic mixture, males and females (mean). As to the method: Bioanalytical methods were developed and validated for quantitation of the 2 pralatrexate C10 diastereomers (PDX-10a and PDX-10b) in human, rat and dog plasma and urine. The basic bioanalytical method involves extraction of PDX-10a and PDX-10b from the matrix utilizing C18 solid-phase extraction (SPE) cartridges followed by derivatization (methylation with acetyl chloride) of the diastereomers for separation detection. The derivatized extracts are injected on a chiral high-performance liquid chromatography (HPLC) column for quantitation of each diastereomer by liquid chromatography-tandem mass spectrometry (LC/MS/MS). The lower limit of quantitation (LLOQ) for both diastereomers in plasma and urine matrices was 0.5 ng/mL.
In humans, PDX-10b clearance was approximately 50% lower for both renal clearance (CLren) and nonrenal clearance (CLnonren). The lower clearance and ˜2-fold lower volume of distribution at steady state (Vdss) of PDX-10b are likely responsible for the 2-fold higher plasma exposure of PDX-10b compared with PDX-10a that is observed in humans. However, the plasma concentration-time profiles for both diastereomers declined in parallel, and terminal elimination half-life (t1/2term) for both diastereomers was virtually identical. The biological cause for the observed stereoselectivity across species is unknown, but may be due to isomeric differences in plasma protein binding. Isomeric differences in tissue distribution and/or renal and hepatobiliary transport may contribute as well.

In data set [7] the test system is MDA-MB-435 (melanoma) human tumor cell line. Kind of data set: MTS growth inhibition assay, MDA-MB-435. The class given is cell-based. As to conditions: 3 h treatment, 72 h recovery. The protocol: as §1, §4, §5, §6, §7, §2
[8] abbreviates: C1D1, 30 mg/m^2 (0.81 mg/kg), n = 10.
Where [9] appears, read: C1D6 or C2D6, 30 mg/m^2 (0.81 mg/kg), n = 6.

As a reminder, the IC50 is the concentration that gives 50% inhibition. Lower therefore signals greater potency in that assay. Broadly, the AUC(0-inf) is the area under the concentration-time curve extrapolated to infinity. The term Cmax denotes the peak of the concentration-time curve.

In the case of `C#CCC(Cc1cnc2nc(N)nc(N)c2n1)c1ccc(C(=O)N[C@@H](CCC(=O)O)C(=O)O)cc1` (mixture of isomers) [PDX, (2S)-2-[[4-[(1RS)-1-[(2,4-diaminopteridin-6-yl)methyl]but-3-ynyl]benzoyl]amino]pentanedioic acid, reference compound], the IC50 in data set [1] was found to be 0.0271 µM; in data set [2] it was 0.0083 µM; in data set [4] (Homo sapiens, NCI-H460, NCI-H460 (lung), 3 h treatment, 72 h recovery, MTS), 0.1 µM; in data set [4] (Homo sapiens, NCI-H460, NCI-H460 repeat assay) it was 0.124 µM; in data set [4] (NCI-H460 repeat assay), 0.124 µM; in data set [7] (Homo sapiens, MDA-MB-435, MDA-MB-435 (melanoma)) it was 0.129 µM. The compound further returned an IC50 in data set [7] (MDA-MB-435 (melanoma)) of 0.129 µM. The AUC(0-inf) in data set [3] (Day 1, 0.7 mg/kg (14 mg/m^2)) is 1.56 µg·h/mL; in data set [3] (Day 281, 0.7 mg/kg (14 mg/m^2)), 1.34 µg·h/mL; in data set [5] (Day 1, 5 mg/kg (30 mg/m^2)), 4.87 µg·h/mL; in data set [5] (Day 85, 5 mg/kg (30 mg/m^2)) it was 4.5 µg·h/mL; in data set [6] (setting [8]) it was 4.46 µg·h/mL; in data set [6] (setting [9]), 3.53 µg·h/mL. In addition, the Cmax came to 1.79 µg/mL in data set [3] (Day 1, 0.7 mg/kg (14 mg/m^2)); 0.649 µg/mL in data set [3] (Day 281, 0.7 mg/kg (14 mg/m^2)); 19.2 µg/mL in data set [5] (Day 1, 5 mg/kg (30 mg/m^2)); 14.3 µg/mL in data set [5] (Day 85, 5 mg/kg (30 mg/m^2)); 5.82 µg/mL in data set [6] (setting [8]); 4.96 µg/mL in data set [6] (setting [9]).

For the origin of these results see patent publication US8835433B2, “Optically pure diastereomers of 10-Propargyl-10-deazaaminopterin and methods of using same for the treatment of cancer” (Allos Therapeutics, Inc., priority 2010, dated 2014).
